Source: US8486981B2, “Selective ligands for the dopamine 3 (D3) receptor and methods of using the same” (The Regents of the University of Michigan, priority 2011, dated 2013)

Tests used:
D3 dopamine receptors = molecular target: T1, D3 dopamine receptors (Rattus norvegicus, UniProt P19020); assay: [3H]R(+)-7-OH-DPAT binding assay, rat ventral striatum membranes; details: rat brain; for Ki: mean ± SEM of 3-6 determinations; for Selectivity D1-like/D3 / Selectivity D2-like/D3: ratio of Ki values
T1 construct: Rat ventral striatum (nucleus accumbens and olfactory tubercles) was prepared in assay buffer; tissue Pel-Freez, Rogers, Ark; host or cells: rat ventral striatum (nucleus accumbens and olfactory tubercles) membranes
T1 sequence (P19020 whole entry): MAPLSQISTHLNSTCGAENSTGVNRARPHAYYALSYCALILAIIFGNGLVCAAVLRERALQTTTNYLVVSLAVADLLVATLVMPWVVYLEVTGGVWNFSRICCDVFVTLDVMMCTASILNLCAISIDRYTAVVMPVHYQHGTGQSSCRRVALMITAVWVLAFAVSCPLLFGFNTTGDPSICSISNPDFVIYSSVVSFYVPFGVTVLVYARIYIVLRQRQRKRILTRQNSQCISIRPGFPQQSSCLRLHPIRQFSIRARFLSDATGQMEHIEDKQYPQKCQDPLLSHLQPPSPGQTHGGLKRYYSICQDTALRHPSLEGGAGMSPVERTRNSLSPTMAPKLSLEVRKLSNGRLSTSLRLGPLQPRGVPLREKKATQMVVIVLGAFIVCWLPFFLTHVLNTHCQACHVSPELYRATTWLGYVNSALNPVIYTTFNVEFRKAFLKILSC
Description: All the synthesized compounds were determined for the binding affinities at the D3, D1-like and D2-like receptors in membranes prepared from the brains of adult, male Sprague-Dawley rats (Pel-Freez, Rogers, Ark.). All compounds were dissolved in 100% EtOH at a concentration of 5 mM.
[^3H]R(+)-7-OH-DPAT Binding Assays.
[^3H]R-(+)-7-OH-DPAT binding assays for the D3 dopamine receptors were performed as previously described in detail.^(44),(45) Rat ventral striatum (nucleus accumbens and olfactory tubercles) was prepared in assay buffer (50 mM Tris, 1 mM EDTA; pH 7.4 at 23° C.) to yield a final concentration of 10 mg original wet weight (o.w.w.)/ml. […] Nonspecific binding was defined by 1 μM spiperone. Assay tubes were incubated at 23° C. for 90 min. The reaction was terminated by rapid vacuum filtration.

D3 and D2 receptors = assay: Effect on pramipexole-induced yawning in rats; type: in vivo, rat; details: 30-min pretreatment; 38/52 […], SB-277011A 32 mg/kg, L-741,626 1.0 mg/kg
Description: (§1) Male Sprague-Dawley rats (Harlan; Indianapolis, Ind.) weighing 250-300 g were housed three to a cage for yawning studies, and one to a cage for hypothermia studies, and maintained on a 12-h dark/light cycle with lights on at 7:00 AM in a temperature (21-23° C.) and humidity controlled environment with free access to standard Purina rodent chow and water. […] All drugs were administered subcutaneously (s.c.) in a volume of 1 ml/kg.
(§2) Observation of yawning behavior began immediately after each injection, and the total number of yawns was recorded for 60 min thereafter.
(§3) Dose-response curves for the induction of yawning and hypothermia were determined with 6 rats per group, and results expressed as the mean number of yawns, or change in body temperature 60 min post agonist injection compared to the body temperature 1 min prior to the agonist injection±standard error of the mean (SEM).

D3 receptor = molecular target: T2, D3 receptor (Rattus norvegicus, UniProt P19020); assay: Induction of yawning behavior in rats; type: in vivo; details: for Emax: rat, read-out: Increase in yawning relative to maximum effect of pramipexole at 0.1 mg/kg, doses between 0.0032 and 3.2 mg/kg; for Emax / Lowest dose active (significant increase in yawning): rats; for Lowest dose active (significant increase in yawning): s.c., yawns/60 min; for In vivo functional activity at the D3 receptor: yawning assays in rats
T2 construct: evaluated for the effect in the induction of yawning and hypothermia in rats; tissue Harlan; Indianapolis, Ind; host or cells: living male Sprague-Dawley rats
T2 sequence (P19020 whole entry): as above
Description: as §1
Yawning behavior was defined as a prolonged (˜1 sec.), wide opening of the mouth followed by a rapid closure. On the day of testing, rats were transferred from their home cage to a test chamber (48 cm×23 cm×20 cm clear rodent cage with standard cob bedding), and allowed to habituate to the chamber for a period of 30 min prior to a sterile water injection which was administered 30 min prior to the injection of the compound of interest. Yawns were scored for a period of 60 min thereafter. Each compound was assessed in groups of 6 rats, with each rat receiving a single dose of one compound. Food and water were unavailable during test sessions, and all experiments were conducted between the hours of 12:00 PM and 6:00 PM with at least 72 hrs between test sessions to allow for drug washout.
as §3

D2 receptor [1] = molecular target: T3, D2 receptor (Rattus norvegicus, UniProt P61169); assay: Effect on pramipexole-induced hypothermia in rats; type: in vivo; details: pretreatment 10.0 mg/kg; pramipexole 1.0 mg/kg
T3 construct: evaluated for the effect in the induction of yawning and hypothermia in rats; tissue Harlan; Indianapolis, Ind; host or cells: living male Sprague-Dawley rats
T3 sequence (P61169 whole entry): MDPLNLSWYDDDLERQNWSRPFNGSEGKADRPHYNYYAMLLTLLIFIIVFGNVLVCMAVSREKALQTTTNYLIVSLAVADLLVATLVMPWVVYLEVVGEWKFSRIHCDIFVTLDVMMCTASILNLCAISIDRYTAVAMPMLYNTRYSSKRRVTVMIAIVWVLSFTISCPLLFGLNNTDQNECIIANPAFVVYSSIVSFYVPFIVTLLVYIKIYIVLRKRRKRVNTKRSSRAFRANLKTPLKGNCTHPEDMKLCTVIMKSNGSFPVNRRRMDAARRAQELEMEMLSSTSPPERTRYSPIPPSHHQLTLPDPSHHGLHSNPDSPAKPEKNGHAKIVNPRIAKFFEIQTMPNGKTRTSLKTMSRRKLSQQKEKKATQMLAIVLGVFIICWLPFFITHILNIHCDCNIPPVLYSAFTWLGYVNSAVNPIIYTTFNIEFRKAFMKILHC
Description: as §1, §2, §3

D2 receptor [2] = molecular target: T3, D2 receptor; assay: Hypothermia assay (core body temperature) in rats; type: in vivo; details: 10.0 mg/kg s.c.
Description: as §1
Rats were anesthetized with ketamine/xylazine (100/10 mg/kg; i.p.) and their abdominal area was shaved and cleaned with alternating betadine and alcohol swabs prior to surgical implantation of radio-telemetric probes (E-4000 E-Mitter, Mini-Mitter, Bend, Oreg., USA). […]
On the day of testing, rats were weighed and returned to their home cages, which were placed onto a receiving pad (ER-4000 Receiver, Mini-mitter, Bend, Oreg.) to allow for the collection of core body temperature. Temperature measurements were taken every min with at least 30 min of baseline temperature data recorded prior to the administration of antagonist or vehicle. Agonist or vehicle injections were administered 30 min thereafter, and core body temperature was recorded for a period of at least the next 60 min. […]

Solubility in water = type: physicochemical

Structure (SMILES)	Ki (D3 dopamine receptors)	Selectivity D1-like/D3 (D3 dopamine receptors)	Selectivity D2-like/D3 (D3 dopamine receptors)	also measured
CCCN(CCC1CCC(NC(=O)c2ccc(-c3noc(C)n3)cc2)CC1)C1CCc2nc(N)sc2C1 (stereo in doubt) [Compound 33, Trans-N-(4-2-(((s)-2-amino-4,5,6,7-tetrahydrobenzo[d]thiazol-6-yl)(propyl)amino)ethylcyclohexyl)-4-(5-methyl-1,2,4-oxadiazol-3-yl)benzamide]	1300 pM	27,041	345	
CCCN(CCC1CCC(NS(=O)(=O)c2ccc(Cl)cc2)CC1)C1CCc2nc(N)sc2C1 (stereo in doubt) [Compound 46, Trans-N-(4-2-(((s)-2-amino-4,5,6,7-tetrahydrobenzo[d]thiazol-6-yl)(propyl)amino)ethylcyclohexyl)-4-chlorobenzenesulfonamide]	950 ± 10 pM	8,754	75	
CCCN(CCC1CCC(NC(=O)c2ccc(-c3noc(CC)n3)cc2)CC1)C1CCc2nc(N)sc2C1 (stereo in doubt) [Compound 34, Trans-N-(4-2-(((s)-2-amino-4,5,6,7-tetrahydrobenzo[d]thiazol-6-yl)(propyl)amino)ethylcyclohexyl)-4-(5-ethyl-1,2,4-oxadiazol-3-yl)benzamide]	2100 ± 150 pM	8,381		
CCCN(CCC1CCC(NS(=O)(=O)c2ccccc2Cl)CC1)C1CCc2nc(N)sc2C1 (stereo in doubt) [Compound 47, Trans-N-(4-2-(((s)-2-amino-4,5,6,7-tetrahydrobenzo[d]thiazol-6-yl)(propyl)amino)ethylcyclohexyl)-2-chlorobenzenesulfonamide]	680 ± 60 pM			
CCCN(CCC1CCC(NS(=O)(=O)c2cccc(Cl)c2)CC1)C1CCc2nc(N)sc2C1 (stereo in doubt) [Compound 45, Trans-N-(4-2-(((s)-2-amino-4,5,6,7-tetrahydrobenzo[d]thiazol-6-yl)(propyl)amino)ethylcyclohexyl)-3-chlorobenzenesulfonamide]	1100 ± 100 pM			
CCCN(CCC1CCC(NC(=O)c2cccc(-c3noc(CC)n3)c2)CC1)C1CCc2nc(N)sc2C1 (single isomer, unassigned) [Compound 37]	1500 pM	3,448	339	
N#Cc1ccc2c(c1)CCN(CCC1CCC(NC(=O)c3ccnc4ccccc34)CC1)C2 (stereo not drawn) [SB-277011A, reference compound]				Effect on yawning at […] pramipexole (D3 and D2 receptors): inhibited the induction of yawning; Effect on yawning induced by 0.1 mg/kg pramipexole (D3 and D2 receptors): inhibited the induction of yawning
CCCN(CCC1CCC(NS(=O)(=O)c2cccnc2Cl)CC1)C1CCc2nc(N)sc2C1 (stereo in doubt) [Compound 52, Trans-N-(4-2-(((s)-2-amino-4,5,6,7-tetrahydrobenzo[d]thiazol-6-yl)(propyl)amino)ethylcyclohexyl)-2-chloropyridine-3-sulfonamide]	380 pM		451	Emax (D3 receptor): 25%; Lowest dose active (significant increase in yawning) (D3 receptor): 3.2 µg/kg; In vivo functional activity at the D3 receptor (D3 receptor): partial agonists at the D3 receptor; Effect on hypothermic effects of pramipexole (D2 receptor [1]): slight, but significant reductions; Effect on yawning induced by 0.1 mg/kg pramipexole (D3 and D2 receptors): effectively inhibited; Induction of hypothermia (D2 receptor [2]): significant effect in induction of hypothermia
OC1(c2ccc(Cl)cc2)CCN(Cc2c[nH]c3ccccc23)CC1 [L-741,626, reference compound]				Effect on yawning at […] pramipexole (D3 and D2 receptors): reversed the inhibition of yawning; Effect on yawning induced by 0.1 mg/kg pramipexole (D3 and D2 receptors): failed to alter the induction of yawning
CCCN(CCC1CCC(NC(=O)c2ccc(-c3noc(C4CC4)n3)cc2)CC1)C1CCc2nc(N)sc2C1 (single isomer, unassigned) [Compound 36]	3500 ± 570 pM	3,245		
CCCN(CCC1CCC(NC(=O)c2ccc(-c3noc(C(C)C)n3)cc2)CC1)C1CCc2nc(N)sc2C1 (single isomer, unassigned) [Compound 35]	2000 ± 190 pM	5,366		
CCCN(CCC1CCC(NS(=O)(=O)c2ccc(OC)cc2)CC1)C1CCc2nc(N)sc2C1 (stereo in doubt) [Compound 44, Trans-N-(4-2-(((s)-2-amino-4,5,6,7-tetrahydrobenzo[d]thiazol-6-yl)(propyl)amino)ethylcyclohexyl)-4-methoxybenzenesulfonamide]	780 pM	27,487	49	
CCCN(CCC1CCC(NS(=O)(=O)c2cccc(F)c2)CC1)C1CCc2nc(N)sc2C1 (stereo in doubt) [Compound 43, Trans-N-(4-2-(((s)-2-amino-4,5,6,7-tetrahydrobenzo[d]thiazol-6-yl)(propyl)amino)ethylcyclohexyl)-3-fluorobenzenesulfonamide]	720 pM			
CCCN(CCC1CCC(NS(=O)(=O)c2cnccc2Cl)CC1)C1CCc2nc(N)sc2C1 (stereo in doubt) [Compound 53, Trans-N-(4-2-(((s)-2-amino-4,5,6,7-tetrahydrobenzo[d]thiazol-6-yl)(propyl)amino)ethylcyclohexyl)-4-chloropyridine-3-sulfonamide]	930 pM			
CCCN(CCC1CCC(NC(=O)c2cccc(-c3noc(C)n3)c2)CC1)C1CCc2nc(N)sc2C1 (stereo in doubt) [Compound 38, Trans-N-(4-2-(((s)-2-amino-4,5,6,7-tetrahydrobenzo[d]thiazol-6-yl)(propyl)amino)ethylcyclohexyl)-3-(5-methyl-1,2,4-oxadiazol-3-yl)benzamide]	730 pM		494	Emax (D3 receptor): 25%; Lowest dose active (significant increase in yawning) (D3 receptor): 3.2 µg/kg; In vivo functional activity at the D3 receptor (D3 receptor): partial agonists at the D3 receptor; Effect on hypothermic effects of pramipexole (D2 receptor [1]): slight, but significant reductions; Effect on yawning induced by 0.1 mg/kg pramipexole (D3 and D2 receptors): effectively inhibited; solubility (Solubility in water): > 100 mg/mL; Induction of hypothermia (D2 receptor [2]): significant effect in induction of hypothermia
CCCN(CCC1CCC(NS(=O)(=O)c2ccc(Cl)nc2)CC1)C1CCc2nc(N)sc2C1 (stereo in doubt) [Compound 51, Trans-N-(4-2-(((s)-2-amino-4,5,6,7-tetrahydrobenzo[d]thiazol-6-yl)(propyl)amino)ethylcyclohexyl)-6-chloropyridine-3-sulfonamide]	630 ± 40 pM	12,933		
